These results are taken from patent US10993439B2, “Mesoionic imidazopyridines as insecticides” (BAYER AKTIENGESELLSCHAFT, priority 2017, dated 2021).

A short description of data set [1]: log P by HPLC on reversed-phase column (EEC directive 79/831 Annex V.A8). In kind it is physicochemical. The following applies: reversed-phase column (C18), 43° C., calibration with unbranched alkan-2-ones. The procedure: The log P values reported in the tables and preparation examples above were determined in accordance with EEC directive 79/831 Annex V.A8 by HPLC (High Performance Liquid Chromatography) using a reversed-phase column (C18). Temperature 43° C. The calibration is effected with unbranched alkan-2-ones (having 3 to 16 carbon atoms), for which the log P values are known.

Data set [2] has as its system Myzus persicae. In words: Myzus persicae oral test. It counts as in vivo. The following applies: application rate 4 ppm; mixed population of green peach aphid; after 5 days. The procedure:
Solvent: 100 parts by weight of acetone
The plates are then sealed with parafilm which can be pierced by a mixed population of the green peach aphid (Myzus persicae) located in a second microtiter plate in order to take up the solution.
(§1) After 5 days, the efficacy in % is determined. 100% means that all the aphids have been killed; 0% means that none of the aphids have been killed.

Another data set concerns Ctenocephalides felis. In words: Ctenocephalides felis in vitro contact test with adult cat fleas. In kind it is in vivo. The following applies: application rate 5 μg/cm^2 (=500 g of ai/ha), after 48 h. The procedure:
For the coating of the test tubes, 9 mg of active compound are first dissolved in 1 ml of acetone p.a. and then diluted to the desired concentration with acetone p.a. 250 μl of the solution are distributed homogeneously on the inner walls and the base of a 25 ml test tube by turning and rocking on an orbital shaker (rocking rotation at 30 rpm for 2 h). With 900 ppm active compound solution and internal surface 44.7 cm^2, given homogeneous distribution, an area-based dose of 5 μg/cm^2 is achieved.
After the solvent has evaporated off, the tubes are populated with 5-10 adult cat fleas (Ctenocephalides felis), sealed with a perforated plastic lid and incubated in a horizontal position at room temperature and ambient humidity. After 48 h, efficacy is determined. To this end, the tubes are stood upright and the fleas are knocked to the base of the tube. Fleas which remain motionless at the base or are moved in an uncoordinated manner are considered to be dead or moribund.
100% efficacy means that all the fleas were dead or moribund. 0% efficacy means that no fleas were harmed.

Data set [3] deals with Myzus persicae. In words: Myzus persicae spray test. Particulars: application rate 500 g/ha; Chinese cabbage leaf discs, all stages of green peach aphid; after 5 days. In kind it is in vivo. The procedure: (§2) Solvents: 78 parts by weight of acetone • • 1.5 parts by weight of dimethylformamide
(§3) Emulsifier: alkylaryl polyglycol ether
(§4) To produce a suitable preparation of active compound, 1 part by weight of active compound is dissolved using the stated parts by weight of solvent and made up with water containing an emulsifier concentration of 1000 ppm until the desired concentration is attained. To produce further test concentrations, the preparation is diluted with emulsifier-containing water.
Discs of Chinese cabbage leaves (Brassica pekinensis) infested by all stages of the green peach aphid (Myzus persicae) are sprayed with an active compound preparation of the desired concentration.
as §1

The test system of another data set is Diabrotica balteata. Kind of data set: Diabrotica balteata spray test. It counts as in vivo. Particulars: application rate 160 μg/well; beetle larvae on germinated wheat grains; after 7 days. The procedure:
as §2, §3, §4
Preswollen wheat grains (Triticum aestivum) are incubated in a multiwell plate filled with agar and a little water for one day (5 seed grains per well). The germinated wheat grains are sprayed with an active compound preparation of the desired concentration. Subsequently, each well is infested with 10-20 Diabrotica balteata beetle larvae.
After 7 days, the efficacy in % is determined. 100% means that all wheat plants have grown as in the untreated non-infested control; 0% means that no wheat plant has grown.

As a reminder, the chromatographic logP is lipophilicity estimated from chromatographic retention. A low value points to lower lipophilicity. Take `CO/N=C/C(=O)c1c([O-])n(CCC#N)c2cccc[n+]12` [I-094, 1-(2-Cyanoethyl)-3-[(2E)-2-methoxyiminoacetyl]imidazo[1,2-a]pyridin-4-ium-2-olate]: the chromatographic logP in data set [1] amounted to 0.73. Also, the “efficacy (aphids killed)” value in the data set with Myzus persicae [2] came to 100%.

Compound `COC(=O)c1c([O-])n(CC(F)(F)F)c2cccc[n+]12` [3-methoxycarbonyl-1-(2,2,2-trifluoroethyl)imidazo[1,2-a]pyridin-4-ium-2-olate] registered a chromatographic logP in data set [1] of 1.01.

`N#CCCn1c([O-])c(C(=O)Nc2c(Cl)cccc2Cl)[n+]2ccccc12` [I-016, 1-(2-Cyanoethyl)-3-[(2,6-dichlorophenyl)carbamoyl]imidazo[1,2-a]pyridin-4-ium-2-olate]: the “efficacy (fleas dead or moribund)” value with Ctenocephalides felis came to 100%. Further, the chromatographic logP in data set [1] amounted to 1.81. For the same compound, the “efficacy (aphids killed)” value with Myzus persicae [3] amounted to 100%.

`COC(=O)c1c([O-])n(CCC#N)c2cccc[n+]12` [1-(2-cyanoethyl)-3-methoxycarbonylimidazo[1,2-a]pyridin-4-ium-2-olate]: the chromatographic logP in data set [1] came to 0.39.

`CC1(OC(=O)C(=O)c2c([O-])n(CCC#N)c3cccc[n+]23)CC1` [I-089, 1-(2-Cyanoethyl)-3-[2-(1-methylcyclopropoxy)-2-oxo-acetyl]imidazo[1,2-a]pyridin-4-ium-2-olate] yielded a chromatographic logP in data set [1] of 1.33. In addition, the “efficacy (aphids killed)” value in the data set with Myzus persicae [3] is listed as 90%.

`Cc1ccc[n+]2c(C(=O)CCl)c([O-])n(CCC#N)c12` [I-095, 3-(2-Chloroacetyl)-1-(2-cyanoethyl)-8-methyl-imidazo[1,2-a]pyridin-4-ium-2-olate] had a chromatographic logP in data set [1] of 0.8.

`N#CCCn1c([O-])c(C(=O)CCl)[n+]2ccccc12` [I-084, 3-(2-Chloroacetyl)-1-(2-cyanoethyl)imidazo[1,2-a]pyridin-4-ium-2-olate] returned a chromatographic logP in data set [1] of 0.8.

For the compound `O=C(c1c([O-])n(CC(F)(F)F)c2cccc[n+]12)C(F)(F)F` [I-047, 3-(2,2,2-trifluoroacetyl)-1-(2,2,2-trifluoroethyl)imidazo[1,2-a]pyridin-4-ium-2-olate], the “efficacy (fleas dead or moribund)” value in the data set with Ctenocephalides felis is recorded as 80%. Besides, in data set [1], the chromatographic logP stood at 1.79. In the data set on Diabrotica balteata, the “efficacy (wheat plants grown as in untreated non-infested control)” value came out at 100%.

The compound `COC(=O)C(=O)c1c([O-])n(CC(F)(F)F)c2cccc[n+]12` [I-051, 3-(2-Methoxy-2-oxoacetyl)-1-(2,2,2-trifluoroethyl)imidazo[1,2-a]pyridin-4-ium-2-olate] came in with a chromatographic logP in data set [1] of 1.18. In the data set on Myzus persicae [2], the “efficacy (aphids killed)” value is recorded as 100%.

`Cc1ccc[n+]2c(C(=O)C(F)(F)F)c([O-])n(CCC#N)c12` [I-027, 1-(2-Cyanoethyl)-8-methyl-3-(2,2,2-trifluoroacetyl)imidazo[1,2-a]pyridin-4-ium-2-olate] gave a chromatographic logP in data set [1] of 1.35.

In data set [1], `N#CCCn1c([O-])c(C(=O)c2cccc(C(F)(F)F)c2)[n+]2ccccc12` [I-004, 1-(2-Cyanoethyl)-3-[3-(trifluoromethyl)benzoyl]imidazo[1,2-a]pyridin-4-ium-2-olate] showed a chromatographic logP of 1.35. The “efficacy (aphids killed)” value in the data set with Myzus persicae [2] is 100%.
